Legend:
[1] = also printed as 187° F.; cited from earlier work
[2] = Solubility of prodiamine in N-methyl pyrrolidone liquid carrier; format: physicochemical; details: N-methyl pyrrolidone as liquid carrier; heating and gentle mixing
Text: For example, when N-methyl pyrrolidone is used as the liquid carrier for prodiamine, concentrations of 50 wt. % or more can be easily achieved by heating and gentle mixing. For convenience, however, concentrations on the order of 10 to 50 wt. %, and especially about 30 to 40 wt. %, are appropriate.
A mixture of 37.6 wt. % Prodiamine Technical Grade Herbicide (94.8% active) obtained from SipCam Aro USA of Roswell, Ga., and 62.4 wt. % M-Pyrol (N-methyl pyrrolidone) solvent obtained from ISP Technologies, Inc., of Wayne, N.J., was heated to about 75° C. (about 165° F.) with mechanical stirring until the prodiamine completely dissolved. The composition so obtained was then allowed to cool to ambient and then sprayed onto a moving bed of particulate fertilizer composed of a mixture of different fertilizer ingredients having particle sizes ranging from 4.75 to 1.18 mm, a combined bulk density of 0.92 gms/cc and containing about 24% nitrogen, 5% phosphorous and 11% potassium, measured as units of total nitrogen (N), available phosphate (P2O5) and soluble potash (K2O).

Structure (SMILES) | flash point [1] | concentration achievable (dissolved) in N-methyl pyrrolidone [2]
CN1CCCC1=O [N-methyl pyrrolidone] | ~86 °C | 
CCCN(CCC)c1c([N+](=O)[O-])cc(C(F)(F)F)c(N)c1[N+](=O)[O-] [prodiamine, 2,4-dinitro-N^3,N^3-di-n-propyl-6-(trfluoromethyl)-1,3-benzenediamine] |  | ≥ 50 wt. %

From patent publication US20050113253A1, “Fertilizer” (priority 2003, published 2005)
